The source of these data is patent EP1975177B1, “An appetite-suppressing peptide, its compositions and use” (Novo Nordisk A/S, priority 1996, dated 2011).

The subject of experiment [1] is mice. Put plainly: Appetite suppression in mice, consumption of 20% sucrose solution. It is filed as in vivo. To be noted: intraperitoneal injection, 50 micrograms, in phosphate buffered saline. The procedure:
Mice were deprived of their normal feed for two days and given free access to a 20% sucrose solution on the first day of feed deprivation. After the 2-day feed deprivation period, mice were injected intraperitoneally with 0.5ml of a solution containing the test substance. Thirty minutes after injection, individual mice were placed in one of eight 15 cm^2 test box with a stainless steel grid floor and a glass drinking tube which projected into the box. The drinking tube was connected to a reservoir containing a 20% sucrose solution, and the interior of the drinking tube contained an electrode enabling the detection of drinking contacts with the solution by measuring the flow of a weak (unnoticeable) electric current through mice by means of an electronic apparatus connected to the drinking tube electrode and the stainless steel grid floor. Consumption of the sucrose solution was measured over a 10 minute period by electronically recording the total amount of contact with the sucrose solution during the test session. The degree of appetite suppression produced by a given test substance was determined by statistical comparison of the duration of sucrose consumption by control (vehicle treated) mice with that of mice treated with a test substance. The degree of appetite suppression in a treated group of mice was expressed as percent of the control groups response. […]

Experiment [2] has as its system fasted rats. The settings on record: cited from earlier work.

Where a SMILES comes first, the peptide text is derived from it.

Take `CC[C@H](C)[C@H](NC(=O)[C@H](Cc1ccccc1)NC(=O)[C@H](CC(=O)O)NC(=O)[C@H](CCCNC(=N)N)NC(=O)[C@@H](NC(=O)[C@H](C)NC(=O)[C@H](CC(C)C)NC(=O)[C@H](CC(N)=O)NC(=O)[C@H](CC(=O)O)NC(=O)[C@H](CC(C)C)NC(=O)[C@@H](NC(=O)[C@@H](NC(=O)[C@H](CC(N)=O)NC(=O)[C@H](CCSC)NC(=O)[C@H](CCC(=O)O)NC(=O)[C@H](CC(=O)O)NC(=O)[C@H](CO)NC(=O)[C@H](Cc1ccccc1)NC(=O)[C@H](CO)NC(=O)CNC(=O)[C@H](CC(=O)O)NC(=O)[C@H](C)NC(=O)[C@@H](N)Cc1c[nH]cn1)[C@@H](C)O)C(C)C)[C@@H](C)O)C(=O)N[C@@H](CC(N)=O)C(=O)N[C@@H](Cc1c[nH]c2ccccc12)C(=O)N[C@@H](CC(C)C)C(=O)N[C@@H](CC(C)C)C(=O)N[C@@H](Cc1c[nH]cn1)C(=O)N[C@H](C(=O)N[C@@H](CCCCN)C(=O)N[C@H](C(=O)N[C@H](C(=O)N[C@@H](CC(=O)O)C(=O)O)[C@@H](C)O)[C@@H](C)CC)[C@@H](C)O` [synthetic porcine GLP-2, porcine GLP-2] (H-HADGSFSDEMNTVLDNLATRDFINWLLHTKITD-OH): in experiment [1], the suppressed sucrose consumption worked out at 38%.

Take GLP-1: the feeding entry in experiment [2] (fasted rats, intracerebroventricular (ICV) administration) is recorded as “inhibited feeding”. The “effect on feeding behaviour” value in experiment [2] (peripheral administration) is listed as “no effect on feeding behaviour”.

Turning to Glucagon, the “effect on food intake” value in experiment [2] (fasted rats, intraperitoneal administration of pharmacological doses) is given as “no effect on food intake”.
